Assay results as given in patent publication US8697683B2, “Azetidinyl diamides as monoacylglycerol lipase inhibitors” (Janssen Pharmaceutica, NV, priority 2009, dated 2014).

target: T1, MGL (Rattus norvegicus, UniProt Q8R431); test: 2-AG Accumulation Assay (rat brain homogenate); format: biochemical; settings: compound 1 μM, percent of vehicle 2-AG accumulation
T1 construct: one g rat brain was homogenized
T1 sequence (Q8R431 1-303): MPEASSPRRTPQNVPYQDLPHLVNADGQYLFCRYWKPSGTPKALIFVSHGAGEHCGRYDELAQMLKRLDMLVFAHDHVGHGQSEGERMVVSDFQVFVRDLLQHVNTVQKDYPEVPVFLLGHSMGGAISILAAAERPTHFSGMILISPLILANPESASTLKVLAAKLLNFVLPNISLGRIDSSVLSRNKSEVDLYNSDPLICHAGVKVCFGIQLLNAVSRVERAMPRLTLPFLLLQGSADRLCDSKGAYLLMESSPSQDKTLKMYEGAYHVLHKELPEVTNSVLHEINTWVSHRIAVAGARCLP

Row | SMILES | Rat Brain 2AG % VehCntrl (%) @1 μM
1 | O=C(c1ccc(-c2cccc(C(F)(F)F)c2)cc1)N1CC(N2CCN(C(=O)c3nccs3)CC2)C1 [Cpd 237, 1-(1,3-Thiazol-2-ylcarbonyl)-4-(1-{[3′-(trifluoromethyl)biphenyl-4-yl]carbonyl}azetidin-3-yl)piperazine] | 1044%
2 | Cc1cc(-c2cccc(C(F)(F)F)c2)ccc1C(=O)N1CC(N2CCN(C(=O)c3nccs3)CC2)C1 [Cpd 239, 1-(1-{[3-Methyl-3′-(trifluoromethyl)biphenyl-4-yl]carbonyl}azetidin-3-yl)-4-(1,3-thiazol-2-ylcarbonyl)piperazine] | 1097%
3 | O=C(c1nccs1)N1CCN(C2CN(C(=O)c3ccc(-c4cccc(C(F)(F)F)c4)cc3Cl)C2)CC1 [Cpd 250, 1-(1-{[3-Chloro-3′-(trifluoromethyl)biphenyl-4-yl]carbonyl}azetidin-3-yl)-4-(1,3-thiazol-2-ylcarbonyl)piperazine] | 1011%
4 | O=C(c1nccs1)N1CCN(C2CN(C(=O)c3sc4cc(C(F)(F)F)ccc4c3Cl)C2)CC1 [Cpd 324, 1-(1-{[3-Chloro-6-(trifluoromethyl)-1-benzothiophen-2-yl]carbonyl}azetidin-3-yl)-4-(1,3-thiazol-2-ylcarbonyl)piperazine] | 1215%
5 | O=C(c1nccs1)N1CCN(C2CN(C(=O)c3sc4cc(Br)ccc4c3Cl)C2)CC1 [Cpd 326, 1-{1-[(6-Bromo-3-chloro-1-benzothiophen-2-yl)carbonyl]azetidin-3-yl}-4-(1,3-thiazol-2-ylcarbonyl)piperazine] | 1336%
6 | O=C(c1ccc2c(-c3ccccc3)cccc2c1)N1CC(N2CCN(C(=O)c3nccs3)CC2)C1 [Cpd 338, 1-{1-[(5-Phenylnaphthalen-2-yl)carbonyl]azetidin-3-yl}-4-(1,3-thiazol-2-ylcarbonyl)piperazine] | 2111%
7 | O=C(c1nccs1)N1CCN(C2CN(C(=O)c3sc4cc(-c5ccccc5)ccc4c3Cl)C2)CC1 [Cpd 343, 1-{1-[(3-Chloro-6-phenyl-1-benzothiophen-2-yl)carbonyl]azetidin-3-yl}-4-(1,3-thiazol-2-ylcarbonyl)piperazine] | 1371%
8 | O=C(c1ccc2c(c1)CCCN2Cc1ccc(C(F)(F)F)cc1)N1CC(N2CCN(C(=O)c3nccs3)CC2)C1 [Cpd 371, 6-({3-[4-(1,3-Thiazol-2-ylcarbonyl)piperazin-1-yl]azetidin-1-yl}carbonyl)-1-(4-trifluoromethylbenzyl)-1,2,3,4-tetrahydroquinoline] | 1138%

same assay, conditions: compound 10 μM, percent of vehicle 2-AG accumulation

Row | SMILES | Rat Brain 2AG % VehCntrl (%) @10 μM
9 | O=C(c1ccc(-c2ccccc2)cc1)N1CC(N2CCN(C(=O)c3nccs3)CC2)C1 [Cpd 9, 1-[1-(Biphenyl-4-ylcarbonyl)azetidin-3-yl]-4-(1,3-thiazol-2-ylcarbonyl)piperazine] | 1026%
10 | O=C(c1ccccc1)N1CCN(C2CN(C(=O)c3ccc4nc(-c5cccc(C(F)(F)F)c5)oc4c3)C2)CC1 [Cpd 131, 6-({3-[4-(Phenylcarbonyl)piperazin-1-yl]azetidin-1-yl}carbonyl)-2-[3-(trifluoromethyl)phenyl]-1,3-benzoxazole] | 1406%
11 | O=C(c1ccc(-c2ccc(C(F)(F)F)cc2)cc1)N1CC(N2CCN(C(=O)c3nccs3)CC2)C1 [Cpd 150, 1-(1,3-Thiazol-2-ylcarbonyl)-4-(1-{[4′-(trifluoromethyl)biphenyl-4-yl]carbonyl}azetidin-3-yl)piperazine] | 1104%
12 | N#Cc1cccc(-c2ccc(C(=O)N3CC(N4CCN(C(=O)c5nccs5)CC4)C3)cc2)c1 [Cpd 161, 4′-({3-[4-(1,3-Thiazol-2-ylcarbonyl)piperazin-1-yl]azetidin-1-yl}carbonyl)biphenyl-3-carbonitrile] | 1280%
13 | O=C(c1ccc(-c2cccc(Cl)c2)cc1)N1CC(N2CCN(C(=O)c3nccs3)CC2)C1 [Cpd 162, 1-{1-[(3′-Chlorobiphenyl-4-yl)carbonyl]azetidin-3-yl}-4-(1,3-thiazol-2-ylcarbonyl)piperazine] | 1099%
14 | O=C(c1ccc(-c2ccc(F)cc2)cc1)N1CC(N2CCN(C(=O)c3nccs3)CC2)C1 [Cpd 174, 1-{1-[(4′-Fluorobiphenyl-4-yl)carbonyl]azetidin-3-yl}-4-(1,3-thiazol-2-ylcarbonyl)piperazine] | 1258%
15 | O=C(c1ccc(-c2ccc(Cl)c(Cl)c2)cc1)N1CC(N2CCN(C(=O)c3nccs3)CC2)C1 [Cpd 175, 1-{1-[(3′,4′-Dichlorobiphenyl-4-yl)carbonyl]azetidin-3-yl}-4-(1,3-thiazol-2-ylcarbonyl)piperazine] | 1180%
16 | Cc1cccc(-c2ccc(C(=O)N3CC(N4CCN(C(=O)c5nccs5)CC4)C3)cc2)c1 [Cpd 176, 1-{1-[(3′-Methylbiphenyl-4-yl)carbonyl]azetidin-3-yl}-4-(1,3-thiazol-2-ylcarbonyl)piperazine] | 1124%
17 | O=C(c1ccc(-c2ccc(F)c(Cl)c2)cc1)N1CC(N2CCN(C(=O)c3nccs3)CC2)C1 [Cpd 178, 1-{1-[(3′-Chloro-4′-fluorobiphenyl-4-yl)carbonyl]azetidin-3-yl}-4-(1,3-thiazol-2-ylcarbonyl)piperazine] | 1192%
18 | O=C(c1ccc(-c2ccc3c(c2)OCO3)cc1)N1CC(N2CCN(C(=O)c3nccs3)CC2)C1 [Cpd 181, 1-(1-{[4-(1,3-Benzodioxol-5-yl)phenyl]carbonyl}azetidin-3-yl)-4-(1,3-thiazol-2-ylcarbonyl)piperazine] | 1236%
19 | O=C(c1ccc(-c2ccc3ccccc3c2)cc1)N1CC(N2CCN(C(=O)c3nccs3)CC2)C1 [Cpd 182, 1-{1-[(4-Naphthalen-2-ylphenyl)carbonyl]azetidin-3-yl}-4-(1,3-thiazol-2-ylcarbonyl)piperazine] | 1500%
20 | O=C(c1ccc(-c2cccc([N+](=O)[O-])c2)cc1)N1CC(N2CCN(C(=O)c3nccs3)CC2)C1 [Cpd 183, 1-{1-[(3′-Nitrobiphenyl-4-yl)carbonyl]azetidin-3-yl}-4-(1,3-thiazol-2-ylcarbonyl)piperazine] | 1090%
21 | CN(C)S(=O)(=O)Nc1cccc(-c2ccc(C(=O)N3CC(N4CCN(C(=O)c5ccccc5)CC4)C3)cc2)c1 [Cpd 205, N,N-Dimethyl-N′-[4′-({3-[4-(phenylcarbonyl)piperazin-1-yl]azetidin-1-yl}carbonyl)biphenyl-3-yl]sulfamide] | 1172%
22 | CC(=O)c1ccc(-c2ccc(C(=O)N3CC(N4CCN(C(=O)c5nccs5)CC4)C3)cc2)cc1 [Cpd 209, 1-[4′-({3-[4-(1,3-Thiazol-2-ylcarbonyl)piperazin-1-yl]azetidin-1-yl}carbonyl)biphenyl-4-yl]ethanone] | 1681%
23 | O=C(c1ccc(-c2ccc([N+](=O)[O-])cc2)cc1)N1CC(N2CCN(C(=O)c3nccs3)CC2)C1 [Cpd 215, 1-{1-[(4′-Nitrobiphenyl-4-yl)carbonyl]azetidin-3-yl}-4-(1,3-thiazol-2-ylcarbonyl)piperazine] | 1091%
24 | N#CC=Cc1cccc(-c2ccc(C(=O)N3CC(N4CCN(C(=O)c5nccs5)CC4)C3)cc2)c1 [Cpd 223, 3-[4′-({3-[4-(1,3-Thiazol-2-ylcarbonyl)piperazin-1-yl]azetidin-1-yl}carbonyl)biphenyl-3-yl]prop-2-enenitrile] | 1261%
25 | O=C(c1ccc(-c2cccc(C(F)(F)F)c2)cc1)N1CC(N2CCN(C(=O)c3cscn3)CC2)C1 [Cpd 229, 1-(1,3-Thiazol-4-ylcarbonyl)-4-(1-{[3′-(trifluoromethyl)biphenyl-4-yl]carbonyl}azetidin-3-yl)piperazine] | 1304%
26 | O=C(c1ccc(-c2cccc(C(F)(F)F)c2)cc1)N1CC(N2CCN(C(=O)c3nccs3)CC2)C1 [Cpd 237, 1-(1,3-Thiazol-2-ylcarbonyl)-4-(1-{[3′-(trifluoromethyl)biphenyl-4-yl]carbonyl}azetidin-3-yl)piperazine] | 1182%
27 | Cc1cc(-c2cccc(C(F)(F)F)c2)ccc1C(=O)N1CC(N2CCN(C(=O)c3nccs3)CC2)C1 [Cpd 239, 1-(1-{[3-Methyl-3′-(trifluoromethyl)biphenyl-4-yl]carbonyl}azetidin-3-yl)-4-(1,3-thiazol-2-ylcarbonyl)piperazine] | 1353%
28 | O=C(c1nccs1)N1CCN(C2CN(C(=O)c3ccc(-c4cccc(C(F)(F)F)c4)cc3Cl)C2)CC1 [Cpd 250, 1-(1-{[3-Chloro-3′-(trifluoromethyl)biphenyl-4-yl]carbonyl}azetidin-3-yl)-4-(1,3-thiazol-2-ylcarbonyl)piperazine] | 1327%
29 | CC1(C)CCC(C)(C)c2cc(CCC(=O)N3CC(N4CCN(C(=O)c5nccs5)CC4)C3)ccc21 [Cpd 282, 1-{1-[3-(5,5,8,8-Tetramethyl-5,6,7,8-tetrahydronaphthalen-2-yl)propanoyl]azetidin-3-yl}-4-(1,3-thiazol-2-ylcarbonyl)piperazine] | 1775%
30 | CN(CC1CCCCC1)c1ccc(CCC(=O)N2CC(N3CCN(C(=O)c4nccs4)CC3)C2)cc1 [Cpd 291, N-(Cyclohexylmethyl)-N-methyl-4-(3-oxo-3-{3-[4-(1,3-thiazol-2-ylcarbonyl)piperazin-1-yl]azetidin-1-yl}propyl)aniline] | 1019%
31 | O=C(c1nccs1)N1CCN(C2CN(C(=O)c3sc4cc(C(F)(F)F)ccc4c3Cl)C2)CC1 [Cpd 324, 1-(1-{[3-Chloro-6-(trifluoromethyl)-1-benzothiophen-2-yl]carbonyl}azetidin-3-yl)-4-(1,3-thiazol-2-ylcarbonyl)piperazine] | 1265%
32 | O=C(c1cc2c(C(F)(F)F)cccc2s1)N1CC(N2CCN(C(=O)c3nccs3)CC2)C1 [Cpd 327, 1-(1,3-Thiazol-2-ylcarbonyl)-4-(1-{[4-(trifluoromethyl)-1-benzothiophen-2-yl]carbonyl}azetidin-3-yl)piperazine] | 2005%
33 | O=C(c1ccc(OCc2ccc(Cl)c(Cl)c2)c(F)c1)N1CC(N2CCN(C(=O)c3nccs3)CC2)C1 [Cpd 400, 1-[1-({4-[(3,4-Dichlorobenzyl)oxy]-3 fluorophenyl}carbonyl)azetidin-3-yl]-4-(1,3-thiazol-2-ylcarbonyl)piperazine] | 1076%
